Here are results for six compounds from patent US20220354847A1, “THIAMINE THERAPY FOR FATTY LIVER ASSOCIATED DISEASES” (priority 2019, published 2022).

One data set deals with hepatic steatosis. Particulars: literature (Biomedical Reports 2013; Journal of Hepatology 2016); cited from earlier work.
In the next data set the test system is liver histology. The following applies: literature, cited from earlier work; for associated adverse effects: long-term treatment.
In data set [1] the test system is hepatic alterations caused by a high-fat diet. Particulars: mice; literature; cited from earlier work.
Data set [2] relates to hepatic steatosis in lambs grown on the HC diet.
For data set [3], the system named is lambs grown on the HC diet. The following applies: within one week of treatment; saline-treated HC group 77.2 mg/dL.
Data set [4] concerns circulating leukocytes gene expression. The following applies: FIG. 14A.

With `N[C@@H](CC(=O)N1CCn2c(nnc2C(F)(F)F)C1)Cc1cc(F)c(F)cc1F` [Sitagliptin], the “effect on hepatic steatosis / liver fat” value with hepatic steatosis was “ineffective”.

Take `CN(C)C(=N)N=C(N)N` [metformin]: the “effect on hepatic steatosis / liver fat” value with hepatic steatosis is reported as “no effect”.

In the case of `CCc1ccc(CCOc2ccc(CC3SC(=O)NC3=O)cc2)nc1` (stereo not drawn) [pioglitazone], in the data set with liver histology, the associated adverse effects result is listed as “weight gain”.

Consider `O=C1CCC(N2C(=O)c3ccccc3C2=O)C(=O)N1` (stereo not drawn) [thalidomide], for which, in data set [1], the “hepatic alterations caused by a high-fat diet” value was “improvements”.

`Cc1ncc(C[n+]2csc(CCO)c2C)c(N)n1` [thiamine]: in the data set on liver gene expression (FIG. 13C), the “liver expression of APOB” value is recorded as “No effects”. Besides, the “liver expression of the energy-sensing axis and of the transporters of NEFA (CD36, SLC27A6, SLC27A5)” value in the data set with liver gene expression (FIG. 13D) was “No effect”. The “liver gene expression of NFKB1, IL1B, CCL2 and IL8” value in the data set on liver gene expression (FIG. 14B) was “No significant alterations”. Besides, the “liver expression of catalase” value in the data set with liver gene expression (FIG. 14C) is reported as “did not affect”. Moreover, in the data set on liver gene expression (P=0.005, FIG. 14B), the “liver expression of TNF” value is given as “lowered”. Further, the “liver expression of superoxide dismutase 2 (SOD2)” value with liver gene expression (P=0.02, FIG. 14C) is “increase”. The “liver expression of genes coding for AMPK (PRKAA2), PGC-1α (PPARGC1A) and PPAR-α (PPARA)” value in the data set on liver gene expression (THC vs HC) is given as “did not affect”. Also, the “Perilipin 2 transcripts in liver” value with liver gene expression (THC vs HC, P=0.002, FIG. 13C) is “lowered Perilipin 2 transcripts substantially”. The “liver expression of SIRT1” value in the data set on liver gene expression (between the treatments, FIG. 13A) is listed as “not different”. Moreover, the “abundance of MTTP transcripts in liver” value in the data set with liver gene expression (compared with untreated HC group, P=0.001) is listed as “increased”. Moreover, the “liver expression of glutathione peroxidase 1 (GPX1)” value in the data set with liver gene expression (in vivo) is “no detected treatment effects”. In addition, the “inflammatory state increased by the HC diet (proinflammatory gene expression)” value in the data set with liver gene expression (leukocyte and liver, FIG. 14 legend) was “partially alleviated”. For the same compound, in data set [2] (HC vs LC and THC, FIG. 11B, 11D), the “hepatocellular steatosis (macro-vesicular or micro-vesicular, histology score 0 to 3)” value was “significantly increased in the HC compared to both the LC and THC groups”. In addition, the “hepatic steatosis (liver fat content, percentage of wet liver weight)” value in data set [2] (THC group, HC diet + thiamine 300 mg/animal s.c. 3 then 5 times a week for the last 85 of 135 days, HC=8.1%, LC 3.8%, P<0.0001) was determined as 4.8%. For the same compound, the “hepatic index (liver weight/BW)” value in data set [2] (THC vs HC, FIG. 11C) is “no significant effect”. In data set [3], this compound came in with a blood glucose levels of 71.7 mg/dL. Besides, the “leukocyte expression of IL1B, TNF and IFNG” value in data set [4] was “No treatment effects”. Further, in data set [4] (thiamine-treated animals, P=0.05), the “leukocyte expression of CXCL8” value is on record as “lower expression”.

Consider vitamin E, for which the “effect on liver histology” value in the data set on liver histology (biopsy-proven NASH patients) is given as “improve liver histology”. The associated adverse effects result in the data set on liver histology was “modest increase in the risk for prostate cancer”.
